Measured values reported in ChEMBL document CHEMBL5154930, “Design, Synthesis, and Biological Evaluations of DOT1L Peptide Mimetics Targeting the Protein-Protein Interactions between DOT1L and MLL-AF9/MLL-ENL” (J Med Chem, 2022).
The source made the active and inactive calls. Non-standard residues stand in square brackets, D forms with d. Residues, ends and D or L forms follow the SMILES beside them. *: point of attachment. X1 = C[C@H](N*)c1nc2cccc(-c3ccccc3)c2[nH]1; Ala(cPent) = N[C@@H](CC1CCCC1)C(=O)O; Pentanoyl(4-Me) = CC(C)CCC(=O)*; Dap(Me) = CNC[C@H](N)C(=O)O

Legend:
MOLM-13 [1] = experiment: Down regulation of AC011043.1 gene in human MOLM-13 cells by RNA-sequencing analysis; type: functional, cell-based
MOLM-13 [2] = experiment: Down regulation of GATA2 gene in human MOLM-13 cells by RNA-sequencing analysis; type: functional, cell-based
MOLM-13 [3] = experiment: Inhibition of methylation of H3K79 in human MOLM-13 cells assessed as inhibition of methylation at HOXA13 gene cluster by chromatin immunoprecipitation assay; type: functional, cell-based
MOLM-13 [4] = experiment: Down regulation of ARID1B gene in human MOLM-13 cells by RNA-sequencing analysis; type: functional, cell-based
RS4-11 = experiment: Anticancer activity against human RS4-11 cells assessed as inhibition of cell growth treated for 8 days measured by CCK-8 kit method; type: functional, cell-based; details: RS4-11, 192 h
MOLM-13 [5] = experiment: Inhibition of methylation of H3K79 in human MOLM-13 cells assessed as inhibition of methylation at HOXA6 gene cluster by chromatin immunoprecipitation assay; type: functional, cell-based
MOLM-13 [6] = experiment: Inhibition of methylation of H3K79 in human MOLM-13 cells assessed as inhibition of methylation at MEIS1-AS3 gene cluster by chromatin immunoprecipitation assay; type: functional, cell-based
MOLM-13 [7] = experiment: Down regulation of PBX3 gene in human MOLM-13 cells by RNA-sequencing analysis; type: functional, cell-based
MOLM-13 [8] = experiment: Down regulation of CNOT6L gene in human MOLM-13 cells by RNA-sequencing analysis; type: functional, cell-based
K562 = experiment: Anticancer activity against human K562 cells assessed as inhibition of cell growth treated for 8 days measured by CCK-8 kit method; type: functional, cell-based; details: K562, 192 h
MOLM-13 [9] = experiment: Induction of apoptosis in human MOLM-13 cells treated for 7 days by Annexin V-FITC/PI staining based flow cytometry analysis; type: functional, cell-based; details: dose 0.25-1 µM, time 7.0 day
MOLM-13 [10] = experiment: Down regulation of DCUN1D1 gene in human MOLM-13 cells by RNA-sequencing analysis; type: functional, cell-based
MOLM-13 [11] = experiment: Inhibition of methylation of H3K79 in human MOLM-13 cells assessed as inhibition of methylation at HOXA5 gene cluster by chromatin immunoprecipitation assay; type: functional, cell-based
MOLM-13 [12] = experiment: Inhibition of methylation of H3K79 in human MOLM-13 cells assessed as inhibition of methylation at MEIS1 gene cluster by chromatin immunoprecipitation assay; type: functional, cell-based
MV4-11 = experiment: Anticancer activity against human MV4-11 cells assessed as inhibition of cell growth treated for 8 days measured by CCK-8 kit method; type: functional, cell-based; details: MV4-11, 192 h
MOLM-13 [13] = experiment: Down regulation of […] gene in human MOLM-13 cells by RNA-sequencing analysis; type: functional, cell-based
MOLM-13 [14] = experiment: Inhibition of methylation of H3K79 in human MOLM-13 cells assessed as inhibition of methylation at HOXA9 gene cluster by chromatin immunoprecipitation assay; type: functional, cell-based
[15] = Apparent permeability across apical to basolateral side in human Caco-2 cells; type: ADME, cell-based
MOLM-13 [16] = experiment: Down regulation of JMJD1C gene in human MOLM-13 cells by RNA-sequencing analysis; type: functional, cell-based
MOLM-13 [17] = experiment: Down regulation of CDK1 gene in human MOLM-13 cells by RNA-sequencing analysis; type: functional, cell-based
MOLM-13 [18] = experiment: Inhibition of methylation of H3K79 in human MOLM-13 cells assessed as inhibition of methylation at HOXA7 gene cluster by chromatin immunoprecipitation assay; type: functional, cell-based
MOLM-13 [19] = experiment: Down regulation of CDKN1B gene in human MOLM-13 cells by RNA-sequencing analysis; type: functional, cell-based
MOLM-13 [20] = experiment: Down regulation of TUBA1B gene in human MOLM-13 cells by RNA-sequencing analysis; type: functional, cell-based

CNC[C@H](NC(=O)[C@@H](NC(=O)[C@@H]1CCCN1C(=O)CCC(C)C)C(C)C)C(=O)N[C@@H](CC1CCCC1)C(=O)N[C@@H](C)c1nc2cccc(-c3ccccc3)c2[nH]1 ({Pentanoyl(4-Me)}-PV[Dap(Me)][Ala(cPent)]-X1)
active: Activity (MOLM-13 [1]) | Activity (MOLM-13 [2]) | inhibition (MOLM-13 [3]) | Activity (MOLM-13 [4]) | inhibition (MOLM-13 [5]) | inhibition (MOLM-13 [6]) | Activity (MOLM-13 [7]) | Activity (MOLM-13 [8]) | Activity (MOLM-13 [9]) | Activity (MOLM-13 [10]) | inhibition (MOLM-13 [11]) | inhibition (MOLM-13 [12]) | Activity (MOLM-13 [13]) | inhibition (MOLM-13 [14]) | Activity (MOLM-13 [16]) | Activity (MOLM-13 [17]) | inhibition (MOLM-13 [18]) | Activity (MOLM-13 [19]) | Activity (MOLM-13 [20])
220 nM: IC50 (MV4-11)
1.97 ×10⁻⁶ cm/s: Papp A→B [15]
59000 nM: IC50 (K562)
240 nM: IC50 (RS4-11)
